Results: the supplement of paper PMC11451515

Test system: NOMO1
Test: cell viability relative to DMSO control; higher = less cytotoxic
Conditions: 48 h
Procedure, shortened: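 Viability is expressed as a percentage of DMSO wells within each plate, and cell-free wells serve as background. Seeding densities in the 1536-well plates (5 μl) were 500 cells/well for NOMO1 or SEM leukemia cells and 1000 cells/well for P12-Ichikawa. Each line was adapted for at least four passages in each medium. Library compounds in DMSO were pin-dosed at 47 μM to 0.79 nM (11 points, threefold), and CellTiter-Glo One luminescence was read after 48 h at 37°C.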

[1] = RPMI 5 mM glucose + 10% FBS, 0.000781 µM
[2] = RPMI 5 mM glucose + 10% FBS, 0.00234 µM
[3] = RPMI 5 mM glucose + 10% FBS, 0.00702 µM
[4] = RPMI 5 mM glucose + 10% FBS, 0.0211 µM
[5] = RPMI 5 mM glucose + 10% FBS, 0.0632 µM
[6] = RPMI 5 mM glucose + 10% FBS, 0.19 µM
[7] = RPMI 5 mM glucose + 10% FBS, 0.569 µM
[8] = RPMI 5 mM glucose + 10% FBS, 1.71 µM
[9] = RPMI 5 mM glucose + 10% FBS, 5.12 µM
[10] = RPMI 5 mM glucose + 10% FBS, 15.4 µM
[11] = RPMI 5 mM glucose + 10% FBS, 46.1 µM
[12] = HPLM + 10% dialyzed FBS, 0.000781 µM
[13] = HPLM + 10% dialyzed FBS, 0.00234 µM
[14] = HPLM + 10% dialyzed FBS, 0.00702 µM
[15] = HPLM + 10% dialyzed FBS, 0.0211 µM
[16] = HPLM + 10% dialyzed FBS, 0.0632 µM
[17] = HPLM + 10% dialyzed FBS, 0.19 µM
[18] = HPLM + 10% dialyzed FBS, 0.569 µM
[19] = HPLM + 10% dialyzed FBS, 1.71 µM
[20] = HPLM + 10% dialyzed FBS, 5.12 µM
[21] = HPLM + 10% dialyzed FBS, 15.4 µM
[22] = HPLM + 10% dialyzed FBS, 46.1 µM
[23] = RPMI 5 mM glucose + 10% dialyzed FBS, 0.000781 µM
[24] = RPMI 5 mM glucose + 10% dialyzed FBS, 0.00234 µM
[25] = RPMI 5 mM glucose + 10% dialyzed FBS, 0.00702 µM
[26] = RPMI 5 mM glucose + 10% dialyzed FBS, 0.0211 µM
[27] = RPMI 5 mM glucose + 10% dialyzed FBS, 0.0632 µM
[28] = RPMI 5 mM glucose + 10% dialyzed FBS, 0.19 µM
[29] = RPMI 5 mM glucose + 10% dialyzed FBS, 0.569 µM
[30] = RPMI 5 mM glucose + 10% dialyzed FBS, 1.71 µM
[31] = RPMI 5 mM glucose + 10% dialyzed FBS, 5.12 µM
[32] = RPMI 5 mM glucose + 10% dialyzed FBS, 15.4 µM
[33] = RPMI 5 mM glucose + 10% dialyzed FBS, 46.1 µM

SMILES | cell viability [1] [%] | cell viability [2] [%] | cell viability [3] [%] | cell viability [4] [%] | cell viability [5] [%] | cell viability [6] [%] | cell viability [7] [%] | cell viability [8] [%] | cell viability [9] [%] | cell viability [10] [%] | cell viability [11] [%] | cell viability [12] [%] | cell viability [13] [%] | cell viability [14] [%] | cell viability [15] [%] | cell viability [16] [%] | cell viability [17] [%] | cell viability [18] [%] | cell viability [19] [%] | cell viability [20] [%] | cell viability [21] [%] | cell viability [22] [%] | cell viability [23] [%] | cell viability [24] [%] | cell viability [25] [%] | cell viability [26] [%] | cell viability [27] [%] | cell viability [28] [%] | cell viability [29] [%] | cell viability [30] [%] | cell viability [31] [%] | cell viability [32] [%] | cell viability [33] [%]
NC/1=N/C(=O)N(C[C@@H](CO)OC[P](O)(O)=O)/C=C1 | 125 | 149 | 123 | 122 | 136 | 135 | 128 | 119 | 122 | 123 | 128 |  |  |  |  |  |  |  |  |  |  |  |  |  |  |  |  |  |  |  |  |  | 
O=C(C1CC1)N1CC[C@@H](Cn2c(-c3ccc(-c4ccc5occc5c4)cc3)nc3cnccc32)C1 | 117 | 101 | 104 | 102 | 111 | 104 | 106 | 115 | 119 | 109 | 113 | 93.7 | 128 | 117 | 112 | 122 | 135 | 121 | 134 | 117 | 123 | 82.6 | 101 | 115 | 107 | 129 | 120 | 112 | 119 | 114 | 109 | 110 | 100
CCc1cccc2c3c([nH]c12)C(CC)(CC(=O)O)OCC3 (centres undefined) | 95 | 92.7 | 95.9 | 102 | 85 | 90.4 | 98.1 | 93.2 | 93.6 | 84.7 | 87.2 | 98.5 | 98.5 | 122 | 105 | 100 | 113 | 88.4 | 97.8 | 97.4 | 100 | 84.5 | 100 | 94.3 | 95.1 | 87.3 | 82.4 | 77.7 | 89.3 | 87.5 | 92.9 | 82.9 | 97.1
CO[C@@H]1[C@@H](OC(N)=O)[C@@H](O)[C@H](OC2=CC=C3\C(=C(NC(=O)C4=CC=C([O-])C(=C4)CC=C(C)C)/C(=O)OC3=C2C)O)OC1(C)C | 91.4 | 101 | 96.6 | 98.1 | 111 | 102 | 116 | 110 | 101 | 86.6 | 26.2 | 110 | 111 | 122 | 114 | 109 | 120 | 101 | 91.9 | 93.2 | 87 | 31.8 | 114 | 118 | 116 | 118 | 113 | 97.5 | 117 | 120 | 88.5 | 83.9 | 35.9
CN(C)/[N+]([O-])=N/Oc1cc(ON[N+](=O)N2CCN(C(=O)c3cc(Cc4n[nH]c(=O)c5ccccc45)ccc3F)CC2)c([N+](=O)[O-])cc1[N+](=O)[O-] | 99.1 | 97.4 | 103 | 114 | 99.4 | 102 | 113 | 122 | 119 | 101 | 106 | 101 | 94.9 | 100 | 100 | 115 | 119 | 109 | 104 | 102 | 126 | 117 | 93.9 | 112 | 101 | 107 | 118 | 114 | 103 | 109 | 123 | 115 | 120
O=[N+]([O-])c1ccc(Nc2ccccc2-c2ccccc2)c2nonc12 | 81.5 | 89.9 | 87.9 | 91.9 | 85.3 | 92.8 | 84.4 | 102 | 95.8 | 94.2 | 89.4 | 87.1 | 84.3 | 100 | 92.6 | 81.9 | 100 | 97 | 101 | 106 | 89 | 98.1 | 76.3 | 82.6 | 88 | 89.8 | 92.5 | 90.2 | 89.2 | 96.1 | 87.5 | 78.2 | 88.7
COC/1=C/[C@@H]2[C@@H]3CC4=C(C(=C(OC)C=C4)O)[C@]2(CCN3C)CC1=O | 118 | 124 | 135 | 165 | 144 | 148 | 148 | 139 | 153 | 141 | 126 | 117 | 123 | 151 | 147 | 151 | 135 | 147 | 161 | 135 | 131 | 113 |  |  |  |  |  |  |  |  |  |  | 
C=CC(=O)Nc1cccc(Oc2nc(Nc3ccc(N4CCN(C)CC4)cc3OC)ncc2Cl)c1 | 72.9 | 74.3 | 79.3 | 78.8 | 87.1 | 102 | 82.1 | 52.1 | 67.3 | 62.1 | 55.8 | 64.3 | 69.5 | 78.3 | 79.1 | 81.9 | 80.6 | 73.9 | 76.5 | 54.7 | 45.1 | 33.3 | 69.6 | 77.9 | 79.4 | 85.8 | 80.6 | 79.2 | 77.3 | 87.9 | 66.1 | 72.2 | 45.5
C[C@H]1[C@H](O)O[C@@H]2O[C@@]3(C)CC[C@H]4[C@H](C)CC[C@@H]1[C@@]24OO3 | 80.2 | 80.5 | 93.2 | 97.2 | 91.9 | 92.2 | 88 | 56.3 | 14.9 | 7.4 | 8.31 | 86 | 97.3 | 81 | 92.6 | 89.9 | 96 | 84.4 | 58.1 | 13.4 | 9.81 | 15.4 | 99.8 | 96 | 92 | 85.7 | 89 | 104 | 93.8 | 64.4 | 17.5 | 12.2 | 15.6
O=C(C[C@@H]1C/C=C\CCC(=O)O[C@H](c2ccccc2)CNC1=O)NCc1ccc(Cl)cc1 | 87.2 | 106 | 120 | 109 | 104 | 115 | 114 | 102 | 109 | 98.5 | 110 | 112 | 125 | 117 | 125 | 111 | 138 | 133 | 114 | 121 | 118 | 114 | 92.2 | 114 | 99.3 | 111 | 113 | 117 | 120 | 125 | 105 | 111 | 99.5
O=[S+]([O-])(CCSSCC[S+](=O)([O-])[O][Na])[O][Na] | 107 | 115 | 125 | 119 | 127 | 123 | 125 | 129 | 147 | 130 | 142 | 110 | 104 | 132 | 124 | 120 | 112 | 133 | 125 | 135 | 129 | 141 | 107 | 112 | 126 | 130 | 121 | 122 | 125 | 139 | 134 | 144 | 127
COC1=CC(=CC=C1)C2=CC=C(NC(=O)/C3=C(/CCC3)C(O)=O)C(=C2)F | 102 | 109 | 103 | 97.8 | 96.3 | 116 | 99.2 | 109 | 104 | 96 | 84.7 | 122 | 114 | 128 | 113 | 105 | 87.8 | 115 | 112 | 103 | 100 | 92.1 | 115 | 105 | 122 | 121 | 120 | 121 | 113 | 107 | 106 | 102 | 63.8
C[C@]12CC[C@@H]3c4ccc(O)cc4CC[C@H]3[C@@H]1CC[C@@H]2O |  |  |  |  |  |  |  |  |  |  |  | 124 | 124 | 124 | 112 | 117 | 115 | 117 | 116 | 112 | 56.3 | 46.9 | 107 | 116 | 105 | 133 | 128 | 116 | 104 | 103 | 104 | 91.8 | 35.6
CCc1ccc(C(=O)Nc2cc(CN3CCN(C)CC3)cc(C(F)(F)F)c2)cc1C#Cc1cnc2ccnn2c1 | 99.5 | 112 | 113 | 114 | 120 | 110 | 119 | 116 | 119 | 128 | 102 | 117 | 113 | 123 | 118 | 109 | 129 | 134 | 142 | 104 | 103 | 101 | 115 | 119 | 107 | 112 | 120 | 114 | 125 | 119 | 120 | 107 | 113
O=[S+]([O-])(O)c1ccc2cc(/N=N/c3cc([S+](=O)([O-])O)c4cccnc4c3O)ccc2c1 | 116 | 106 | 111 | 109 | 119 | 119 | 109 | 110 | 101 | 110 | 44.2 | 114 | 122 | 133 | 136 | 129 | 139 | 122 | 126 | 127 | 110 | 44 | 121 | 124 | 117 | 115 | 119 | 113 | 121 | 119 | 110 | 106 | 62.1
Nc1nc(Nc2ccc([S+](N)(=O)[O-])cc2)nn1C(=O)c1c(F)cccc1F | 94.7 | 87.8 | 107 | 94 | 94.7 | 99.3 | 93.8 | 87.2 | 93.2 | 50.4 | 8.21 | 94.7 | 97.4 | 90.6 | 113 | 105 | 109 | 102 | 107 | 120 | 66.1 | 7.01 | 98.7 | 86.1 | 100 | 91.5 | 86.9 | 92.7 | 93.1 | 104 | 84.4 | 49.5 | 5.65
